Patent publication US12227742B2, “Nucleic acid modifiers” (THE BROAD INSTITUTE, INC., priority 2017, dated 2025)
Entries after “also recorded” stand apart in the source; their conditions may differ.

Tests used:
Factor VII = conditions: LNP siRNA systems containing these lipids; cited from earlier work
supercoiled plasmid DNA = assay: Plasmid DNA cleavage by small-molecule strand breakers (gel electrophoresis); assay type: biochemical; conditions: for DNA cleavage activity on supercoiled plasmid: gel electrophoresis, FIG. 19A-19D; for DNA cleavage activity on supercoiled plasmid / Effect of reducing agent on DNA cleavage: supercoiled plasmid; for Effect of reducing agent on DNA cleavage: with reducing agent, FIG. 19A, 19B
Description: Nitracrine (compound 1.15) was synthesized according to the reaction scheme depicted in FIG. 5. Plasmid DNA was incubated with nitracrine alone (10, 12, 14 μM), nitracrine with exposure to UV (365 nm), or nitracrine with exposure to UV and reducing agent TCEP (FIG. 8A). The same experiment was repeated but using 16, 18, or 20 μM nitracrine (FIG. 8B).
Plasmid DNA was incubated with nitracrine alone (10, 12, 14 μM), nitracrine with exposure to UV (365 nm), or nitracrine with exposure to UV and reducing agent DTT (FIG. 9A). The same experiment was repeated but using 16, 18, or 20 μM nitracrine (FIG. 9B).
Plasmid DNA was incubated with 16 μM nitracrine and exposed to UV (365 nm) over a range of 30-60 minutes (FIG. 10).
DNA cleavage activity of synthetic strand breakers. A series of small molecule DNA strand breakers having diverse structures and cleavage mechanisms were tested (FIG. 19A-19D). A supercoiled plasmid was used as a model substrate DNA, as both single and double-strand breaks can easily be detected using gel electrophoresis.

pcDNA = pcDNA cleavage by compound 1.15, gel electrophoresis; assay type: biochemical
target DNA = assay: AsCpf1 activity, mutational analysis; assay type: biochemical

## CCCCC/C=C\C/C=C\CCCCCCCC(=O)OCC(CN(C)C)OC(=O)CCCCCCC/C=C\C/C=C\CCCCC (stereo not shown) [DLinDAP, 1,2-dilineoyl-3-dimethylammonium-propane]
Factor VII
  gene silencing potency in hepatocytes in vivo (rank order): DLinKC2-DMA>DLinKDMA>DLinDMA>>DLinDAP

## CCCCC/C=C\C/C=C\CCCCCCCCOCC(CN(C)C)OCCCCCCCC/C=C\C/C=C\CCCCC (stereo not shown) [DLinDMA, 1,2-dilinoleyloxy-3-N,N-dimethylaminopropane]
Factor VII
  gene silencing potency in hepatocytes in vivo (rank order): DLinKC2-DMA>DLinKDMA>DLinDMA>>DLinDAP

## CCCCC/C=C\C/C=C\CCCCCCCCC1(CCCCCCCC/C=C\C/C=C\CCCCC)OCC(CCN(C)C)O1 (stereo not shown) [DLinKC2-DMA, 1,2-dilinoleyl-4-(2-dimethylaminoethyl)-[1,3]-dioxolane]
Factor VII
  gene silencing potency in hepatocytes in vivo (rank order): DLinKC2-DMA>DLinKDMA>DLinDMA>>DLinDAP

## CCCCC/C=C\C/C=C\CCCCCCCCC1(CCCCCCCC/C=C\C/C=C\CCCCC)OCC(CN(C)C)O1 (stereo not shown) [DLinKDMA, 1,2-dilinoleyloxy-keto-N,N-dimethyl-3-aminopropane]
Factor VII
  gene silencing potency in hepatocytes in vivo (rank order): DLinKC2-DMA>DLinKDMA>DLinDMA>>DLinDAP

## CC(C)C(=O)O[C@H]1c2c(c3c(=O)c4cccc(O)c4c(=O)c=3c2=[N+]=[N-])[C@@H](O)[C@H]2O[C@@]21C [FL-120B]
Supercoiled plasmid DNA
  DNA cleavage activity on supercoiled plasmid: cleave DNA at low micromolar concentrations
  Effect of reducing agent on DNA cleavage: accelerated by a reducing agent

## CC[C@@]1(O[C@H]2C[C@H](OC)[C@@H](O)[C@H](C)O2)[C@H](O[C@@H]2C[C@H](O)[C@@H](N(C)C)[C@H](C)O2)C2=Cc3c(O)c4c(c(O)c3C2=C(O)[C@@H]1[C@H]1C(=O)c2c(c(=[N+]=[N-])c3c(O)c5c(=O)ccc(=O)c5c(O)c23)[C@@H](O[C@@H]2C[C@H](O)[C@@H](N(C)C)[C@H](C)O2)[C@@]1(CC)O[C@H]1C[C@H](OC)[C@@H](O)[C@H](C)O1)C(=O)C=CC4=O [Lomaiviticin C]
Supercoiled plasmid DNA
  DNA cleavage activity on supercoiled plasmid: cleave DNA at low micromolar concentrations
  Effect of reducing agent on DNA cleavage: accelerated by a reducing agent

## CN(C)CCCNc1c2ccccc2nc2cccc([N+](=O)[O-])c12 [Nitracrine]
Supercoiled plasmid DNA; plasmid DNA, 16 μM nitracrine, UV 365 nm for 30-60 minutes
  DNA cleavage over UV exposure time: Cleavage was observed under all conditions
Supercoiled plasmid DNA; plasmid DNA, nitracrine 10-20 μM, UV 365 nm
  DNA cleavage with exposure to UV: DNA cleavage was observed at all nitracrine concentrations
Supercoiled plasmid DNA; plasmid DNA, nitracrine 10-20 μM, UV 365 nm, DTT
  DNA cleavage with exposure to UV and reducing agent DTT: including with DTT
Supercoiled plasmid DNA
  DNA cleavage activity on supercoiled plasmid: cleaves DNA when irradiated by light

## CN(C)CCCNc1c2ccccc2nc2cccc([N+](=O)[O-])c12 [compound 1.15, nitracrine]
pcDNA; 16 μM, UV (365 nm) from 30 to 60 min
  pcDNA cleavage: pcDNA cleavage
pcDNA; 10-20 μM, UV (365 nm), presence and absence of reducing agent DTT
  pcDNA cleavage: pcDNA cleavage
pcDNA; 10-20 μM, UV (365 nm), presence and absence of reducing agent TCEP
  pcDNA cleavage: pcDNA cleavage

## G783P: AsCpf1 mutant, WED
Target DNA
  activity: reduced activities; also recorded: Reduced activity

## R176A: AsCpf1 mutant, REC1
Target DNA
  activity: reduced activities; also recorded: Reduced activity

## R192A: AsCpf1 mutant, REC1
Target DNA
  activity: reduced activities; also recorded: Reduced activity

## R951A: AsCpf1 mutant, bridge helix
Target DNA
  activity: reduced activities
